In patent US8552005B2, “(EN) 3-sulfonyl-pyrazolo[1,5-a] pyrimidines / antagonists of serotonin 5-HT6 receptors, methods for the production and the use thereof” (Avincuro Pharmaceuticals, Inc., priority 2008, dated 2013):

Key:
5-HT6 receptor [1] = target: T1, 5-HT6 receptor (Homo sapiens (Human), UniProt P50406); experiment: Antagonistic activity towards 5-HT6 receptors: inhibition of serotonin-induced intracellular cAMP (LANCE cAMP) in HEK 293 cells; assay type: cell-based; conditions: for inhibition at 10 µM: HEK293, read-out: % inhibition of 5-HT6 receptors (I, %), 10 μM solutions, serotonin-induced cAMP; for IC50: serotonin-stimulated intracellular cAMP production, read-out: IC50 in the setting of functional assay
T1 sequence (P50406 whole entry): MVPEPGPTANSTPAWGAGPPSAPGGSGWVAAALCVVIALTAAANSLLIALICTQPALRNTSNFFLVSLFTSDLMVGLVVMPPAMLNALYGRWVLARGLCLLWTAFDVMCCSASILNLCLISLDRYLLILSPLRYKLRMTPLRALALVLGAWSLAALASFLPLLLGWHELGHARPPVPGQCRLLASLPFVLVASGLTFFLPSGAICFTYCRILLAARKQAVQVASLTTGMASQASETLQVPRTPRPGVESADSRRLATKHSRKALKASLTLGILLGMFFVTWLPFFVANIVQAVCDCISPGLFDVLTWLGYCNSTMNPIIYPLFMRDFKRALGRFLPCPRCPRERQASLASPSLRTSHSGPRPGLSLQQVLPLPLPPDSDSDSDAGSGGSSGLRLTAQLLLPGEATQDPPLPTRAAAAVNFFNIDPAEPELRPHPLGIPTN
Protocol: Determination of antagonistic activity of compounds of general formula 1 towards 5-HT6 receptors. Compounds of general formula 1 were tested for their ability to prevent 5-HT6 receptor activation by serotonin. HEK 293 cells (cells of human embryo's kidney) with artificially expressed 5-HT6 receptor, activation of which by serotonin leads to increasing the concentration of intracellular cAMP were used. The content of intracellular cAMP was determined using reagent kit LANCE cAMP (PerkinElmer) according to the method described by the manufacturer of the kit [http://las.perkinelmer.com/content/Manuals/MAN_LANCEcAMP384KitUser.pdf].
Effectiveness of compounds was estimated by their ability to reduce the content of intracellular cAMP induced by serotonin.

5-HT6 receptor [2] = target: T1, 5-HT6 receptor; experiment: Competitive radioligand binding ([3H] Lysergic acid diethylamide) to serotonin 5-HT6 receptors, HeLa cell membranes; conditions: 1.5 nM [3H] Lysergic acid diethylamide, 120 min at 37° C.; for IC50: read-out: IC50 in the setting of competitive binding; for Ki: read-out: Ki in the setting of competitive binding
Protocol: Determination of activity of serotonin 5-HT6 receptor antagonists of the general formula 1 in the setting of competitive binding to serotonin 5-HT6 receptors.
Screening of disclosed compounds for their potential ability to interact with serotonin 5-HT6 receptor was carried out by method of radioligand binding. For this purpose membrane species were prepared from expressing recombinant human 5-HT6 receptor HeLa cells by means of their homogenization in glass homogenizer with subsequent separation of plasmatic membranes from cell nucli, mitochondria's and cell wreckages by differential centrifugation. […] Mol. Pharmacol. 43:320-327, 1993]. […] After incubation the samples were filtered in vacuo on glass-microfiber filters G/F (Millipor, USA), filters were washed three times with cold solution of medium and radioactivity was measured by scintillation counter MicroBeta 340 (PerkinElmer, USA). […] Binding of tested compounds to the receptor was determined by their ability to displace the radioligand and expressed in percent of displacement. The percent of displacement was calculated according to the following equation:
[formula] wherein: TA—was overall radioactivity in the presence of radioligand only, CA—was radioactivity in the presence of radioligand and tested compound and NA—was radioactivity in the presence of radioligand and Serotonin (5 μM).

SMILES	inhibition at 10 µM (5-HT6 receptor [1]) [%]	IC50 (5-HT6 receptor [2]) [nM]	Ki (5-HT6 receptor [2]) [nM]	IC50 (5-HT6 receptor [1]) [nM]
Cc1cc(C)n2nc(C)c(S(=O)(=O)c3ccncc3)c2n1 [1(2)]	77			
Cc1cc(C)n2nc(C)c(S(=O)(=O)c3cccc(F)c3)c2n1 [1.1(14)]	88			
Cc1cc(C)n2ncc(S(=O)(=O)c3ccccc3)c2n1 [1.1(1), 5,7-dimethyl-3-(phenylsulfonyl)pyrazolo[1,5-a]pyrimidine]	78	510	237	> 1000
CSc1nn2c(-c3ccccc3)cc(C)nc2c1S(=O)(=O)c1ccccc1 [1(1)]	88			
CSc1nn2c(C)cc(C)nc2c1S(=O)(=O)c1ccccc1 [1.1(5), 5,7-dimethyl-2-methylsulfanyl-3-(phenylsulfonyl)pyrazolo[1,5-a]pyrimidine]	104	4.61	2.14	30
Cc1cc(C)n2nc(C)c(S(=O)(=O)c3ccccc3)c2n1 [1.1(13)]	86	147	68.4	
CCSc1nn2c(C)cc(C)nc2c1S(=O)(=O)c1cccc(F)c1 [1.1(10), 5,7-dimethyl-2-ethylsulfanyl-3-(3-fluorophenylsulfonyl)pyrazolo[1,5-a]pyrimidine]	103			
CSc1nn2c(C)cc(C)nc2c1S(=O)(=O)c1cccc(Cl)c1 [1.1(11), 5,7-dimethyl-2-methylsulfanyl-3-(3-chlorophenylsulfonyl)pyrazolo[1,5-a]pyrimidine]	101			20
CCSc1nn2c(C)cc(C)nc2c1S(=O)(=O)c1cccc(Cl)c1 [1.1(12), 5,7-dimethyl-2-ethylsulfanyl-3-(3-chlorophenylsulfonyl)pyrazolo[1,5-a]pyrimidine]	101			
CCSc1nn2c(C)cc(C)nc2c1S(=O)(=O)c1ccccc1 [1.1(6), 5,7-dimethyl-2-ethylsulfanyl-3-(phenylsulfonyl)pyrazolo[1,5-a]pyrimidine]	104			50
Cc1cc(C)n2nc(C)c(S(=O)(=O)c3cccnc3)c2n1 [1(3)]	78			
Cc1cc(C)n2nc(OCCO)c(S(=O)(=O)c3ccccc3)c2n1 [1.1(2)]	82	477	222	
CSc1nn2c(C)cc(-c3ccccc3)nc2c1S(=O)(=O)c1ccccc1 [1(5)]	68			
Cc1cc(C)n2nc(OCCN(C)C)c(S(=O)(=O)c3ccccc3)c2n1 [1.1(22)]	66			
CCSc1nn2c(C)cc(C)nc2c1S(=O)(=O)c1ccc(C)cc1 [1.1(15)]	99			80
CCSc1nn2c(C)cc(C)nc2c1S(=O)(=O)c1ccc(OC)cc1 [1.1(18)]	61			320
Cc1cc(C)n2nc(OCCO)c(S(=O)(=O)c3ccc(F)cc3)c2n1 [1.1(4)]	73			
Cc1cc(C)n2nc(C)c(S(=O)(=O)c3cccs3)c2n1 [1(4)]	69			

The remaining lines, values ahead:

inhibition at 10 µM (5-HT6 receptor [1]) [%]	IC50 (5-HT6 receptor [2]) [nM]	Ki (5-HT6 receptor [2]) [nM]	IC50 (5-HT6 receptor [1]) [nM]	SMILES
78				Cc1cc(C)n2nc(C)c(S(=O)(=O)c3ccc(F)cc3)c2n1 [1.1(21)]
94			230	CSc1nn2c(C)cc(C)nc2c1S(=O)(=O)c1ccc(Cl)cc1 [1.1(16)]
65.4			440	COc1ccc(S(=O)(=O)c2c(SC)nn3c(C)cc(C)nc23)cc1 [1.1(17)]
102				CCSc1nn2c(C)cc(C)nc2c1S(=O)(=O)c1ccc(F)cc1 [1.1(8), 5,7-dimethyl-2-ethylsulfanyl-3-(4-fluorophenylsulfonyl)pyrazolo[1,5-a]pyrimidine]
100				CSc1nn2c(C)cc(C)nc2c1S(=O)(=O)c1ccc(F)c(Cl)c1 [1.1(20)]
87				CSc1nn2c(C)cc(C)nc2c1S(=O)(=O)c1ccc(N(C)C)cc1 [1.1(19)]
100			25	CSc1nn2c(C)cc(C)nc2c1S(=O)(=O)c1cccc(F)c1 [1.1(9), 5,7-dimethyl-2-methylsulfanyl-3-(3-fluorophenylsulfonyl)pyrazolo[1,5-a]pyrimidine]
101	< 10		112	CSc1nn2c(C)cc(C)nc2c1S(=O)(=O)c1ccc(F)cc1 [1.1(7), 5,7-dimethyl-2-methylsulfanyl-3-(4-fluorophenylsulfonyl)pyrazolo[1,5-a]pyrimidine]
